#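 Cells were grown in 96-well plates and exposed to each compound for 48 hours at five concentrations; endpoints were interpolated linearly between bracketing concentrations, or set to the highest concentration if not reached. The concentration for 50% growth inhibition is given as GI50.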 Activity calls are given as the source filed them. No stated cut-off is given here; in the data, active = GI50 up to about 1.1 µM and inactive = higher. Non-standard residues stand in square brackets, D forms with d. Residues, ends and D or L forms follow the SMILES beside them. ξ: configuration not given here. *: point of attachment. NMeF = CN[C@@H](Cc1ccccc1)C(=O)O; ξNMeV = CNC(C(=O)O)C(C)C; Boc = CC(C)(C)OC(=O)*; OBn = c1ccc(CO*)cc1
# How the values were obtained:
# Assay in all cases: NCI-60 cell line screen, 48 h
# [1] = tested on: 786-0
# [2] = tested on: M14
# [3] = tested on: NCI-H460
# [4] = tested on: HCT-116
# [5] = tested on: HL-60
# [6] = tested on: SK-MEL-28
# [7] = tested on: HCT-15
# [8] = tested on: HCC 2998
# [9] = tested on: OVCAR-8
# [10] = tested on: CAKI-1
# [11] = tested on: SN12C
# [12] = tested on: UACC-257
# [13] = tested on: SK-OV-3
# [14] = tested on: OVCAR-5
# [15] = tested on: SNB-75
# [16] = tested on: UACC-62
# [17] = tested on: KM12
# [18] = tested on: NCI-H522
Structure (SMILES),GI50 [1],GI50 [2],GI50 [3],GI50 [4],GI50 [5],GI50 [6],GI50 [7] [µM],GI50 [8],GI50 [9],GI50 [10],GI50 [11],GI50 [12],GI50 [13],GI50 [14],GI50 [15],GI50 [16],GI50 [17],GI50 [18]
Clc1cc2n[se]nc2cc1Cl,> 100 µM (inactive),> 100 µM (inactive),> 100 µM (inactive),> 100 µM (inactive),84.1 µM (inactive),> 100 µM (inactive),> 100,> 100 µM (inactive),> 100 µM (inactive),> 100 µM (inactive),> 100 µM (inactive),> 100 µM (inactive),> 100 µM (inactive),> 100 µM (inactive),36.1 µM (inactive),> 100 µM (inactive),> 100 µM (inactive),–
C=CCn1c(=S)sc2c(O)ncnc21,> 100 µM (inactive),> 100 µM (inactive),> 100 µM (inactive),> 100 µM (inactive),> 100 µM (inactive),–,> 100,> 100 µM (inactive),> 100 µM (inactive),> 100 µM (inactive),> 100 µM (inactive),> 100 µM (inactive),> 100 µM (inactive),> 100 µM (inactive),61.2 µM (inactive),> 100 µM (inactive),> 100 µM (inactive),> 100 µM (inactive)
CC(C)C(C(=O)N1CCC[C@@H]1C(=O)OCc1ccccc1)N(C)C(=O)C(C(C)C)N(C)C(=O)[C@H](Cc1ccccc1)N(C)C(=O)[C@H](NC(=O)OC(C)(C)C)C(C)C (some centres not stated) (Boc-[dV][NMeF][ξNMeV][ξNMeV][dP]-OBn),> 100 µM (inactive),> 100 µM (inactive),> 24.3 µM (inactive),14.5 µM (inactive),4.12 µM (inactive),> 100 µM (inactive),> 30.9,> 100 µM (inactive),> 100 µM (inactive),–,> 100 µM (inactive),13.6 µM (inactive),> 100 µM (inactive),> 100 µM (inactive),9.91 µM (inactive),> 100 µM (inactive),> 80.7 µM (inactive),> 100 µM (inactive)
COc1cccc2c(SCC(=O)Nc3ccccc3-c3ccccc3NC(=O)CSc3c4ccccc4nc4c(OC)cccc34)c3ccccc3nc12,> 100 µM (inactive),60.1 µM (inactive),> 100 µM (inactive),> 100 µM (inactive),9.93 µM (inactive),> 100 µM (inactive),> 100,> 100 µM (inactive),> 100 µM (inactive),–,> 100 µM (inactive),–,–,> 100 µM (inactive),17.5 µM (inactive),38.6 µM (inactive),> 100 µM (inactive),–
COC(=O)C(Cc1nc2ccccc2nc1C)/C(=N\NC(N)=O)C(=O)Nc1cccc([N+](=O)[O-])c1 (configuration not stated),> 100 µM (inactive),> 100 µM (inactive),> 100 µM (inactive),> 100 µM (inactive),36.1 µM (inactive),> 100 µM (inactive),> 100,> 100 µM (inactive),80.7 µM (inactive),> 100 µM (inactive),> 100 µM (inactive),> 100 µM (inactive),> 100 µM (inactive),> 100 µM (inactive),> 100 µM (inactive),45.2 µM (inactive),95.9 µM (inactive),10.8 µM (inactive)
CCCCCC(CN1CCOCC1)C(=O)/C=C/c1ccccc1 (configuration not stated),1.76 µM (inactive),2 µM (inactive),2.77 µM (inactive),1.75 µM (inactive),1.85 µM (inactive),5.82 µM (inactive),2.03,2 µM (inactive),–,–,2.94 µM (inactive),2.96 µM (inactive),2.71 µM (inactive),2.63 µM (inactive),7.13 µM (inactive),1.46 µM (inactive),1.76 µM (inactive),–
Nc1ccc(C(=O)O)c2[nH]c3ccccc3c(=O)c12,> 100 µM (inactive),> 100 µM (inactive),> 100 µM (inactive),> 100 µM (inactive),> 100 µM (inactive),–,> 100,> 100 µM (inactive),> 100 µM (inactive),> 100 µM (inactive),> 100 µM (inactive),> 100 µM (inactive),> 100 µM (inactive),> 100 µM (inactive),31.9 µM (inactive),> 100 µM (inactive),> 100 µM (inactive),> 100 µM (inactive)
NC(=O)CCC(Nc1c2ccccc2nc2ccccc12)C(=O)O (configuration not stated),> 100 µM (inactive),> 100 µM (inactive),86.9 µM (inactive),91 µM (inactive),15.3 µM (inactive),> 100 µM (inactive),> 100,> 100 µM (inactive),> 100 µM (inactive),> 100 µM (inactive),> 100 µM (inactive),65.8 µM (inactive),–,> 100 µM (inactive),> 100 µM (inactive),–,> 100 µM (inactive),> 100 µM (inactive)
COCOCC[C@@H]1CC=CC(NC(=O)OCc2ccccc2)C1/C=C/C(=O)CCC1OCCO1 (some centres not stated),48.4 µM (inactive),29.5 µM (inactive),38.6 µM (inactive),17.7 µM (inactive),18.5 µM (inactive),42.1 µM (inactive),16.4,> 63.7 µM (inactive),19.1 µM (inactive),44.2 µM (inactive),25.2 µM (inactive),25.4 µM (inactive),54.5 µM (inactive),> 72.8 µM (inactive),28.8 µM (inactive),25.5 µM (inactive),18.8 µM (inactive),16.4 µM (inactive)
CCCC(N)C(=O)c1ccccc1 (configuration not stated),> 100 µM (inactive),> 100 µM (inactive),> 100 µM (inactive),> 100 µM (inactive),> 100 µM (inactive),> 100 µM (inactive),> 100,> 100 µM (inactive),> 100 µM (inactive),> 100 µM (inactive),> 100 µM (inactive),> 100 µM (inactive),> 100 µM (inactive),> 100 µM (inactive),> 100 µM (inactive),> 100 µM (inactive),> 100 µM (inactive),> 100 µM (inactive)
CN(c1nc(=[N+](C)C)ss1)C1CCCCC1,> 100 µM (inactive),> 100 µM (inactive),13.3 µM (inactive),> 100 µM (inactive),> 100 µM (inactive),> 100 µM (inactive),> 100,> 100 µM (inactive),> 100 µM (inactive),> 100 µM (inactive),> 100 µM (inactive),> 100 µM (inactive),> 100 µM (inactive),> 100 µM (inactive),> 100 µM (inactive),19.4 µM (inactive),58.5 µM (inactive),> 100 µM (inactive)
COC(=O)C(C(=O)C(=O)Nc1ccc([N+](=O)[O-])cc1)c1nc2ccc([N+](=O)[O-])cc2nc1O (configuration not stated),> 100 µM (inactive),76.6 µM (inactive),> 100 µM (inactive),> 100 µM (inactive),41.9 µM (inactive),> 100 µM (inactive),> 100,> 100 µM (inactive),> 100 µM (inactive),> 100 µM (inactive),> 100 µM (inactive),> 100 µM (inactive),> 100 µM (inactive),> 100 µM (inactive),> 100 µM (inactive),63.1 µM (inactive),> 100 µM (inactive),14.1 µM (inactive)
COC(=O)C1=CC2CC1C(S(=O)(=O)c1ccccc1)C2S(=O)(=O)c1ccccc1 (configuration not stated),10.3 µM (inactive),11.3 µM (inactive),21.6 µM (inactive),14.8 µM (inactive),2.62 µM (inactive),14.1 µM (inactive),12.5,19.7 µM (inactive),13 µM (inactive),7.83 µM (inactive),14 µM (inactive),15.2 µM (inactive),44.3 µM (inactive),14.7 µM (inactive),–,22.1 µM (inactive),–,–
CCOC(=O)c1cnc2[nH]c(=O)c3ccccc3n2c1=O,> 100 µM (inactive),> 100 µM (inactive),> 100 µM (inactive),> 100 µM (inactive),85.5 µM (inactive),> 100 µM (inactive),> 100,–,> 100 µM (inactive),> 100 µM (inactive),> 100 µM (inactive),> 100 µM (inactive),> 100 µM (inactive),> 100 µM (inactive),> 100 µM (inactive),> 100 µM (inactive),> 100 µM (inactive),> 100 µM (inactive)
COc1ccc2nc3cc(Cl)ccc3c(Sc3ccc([N+](=O)[O-])cc3C)c2c1,> 100 µM (inactive),> 100 µM (inactive),> 100 µM (inactive),> 100 µM (inactive),–,> 100 µM (inactive),> 100,> 100 µM (inactive),> 100 µM (inactive),> 100 µM (inactive),74.3 µM (inactive),> 100 µM (inactive),> 100 µM (inactive),> 100 µM (inactive),> 100 µM (inactive),> 100 µM (inactive),> 100 µM (inactive),> 100 µM (inactive)
CCOC(=O)/C(=C/c1cccc(OC)c1)N(CC)CC,> 100 µM (inactive),> 100 µM (inactive),> 10 µM (inactive),> 100 µM (inactive),> 100 µM (inactive),> 100 µM (inactive),> 100,–,> 100 µM (inactive),> 100 µM (inactive),–,> 100 µM (inactive),> 100 µM (inactive),> 100 µM (inactive),–,> 100 µM (inactive),> 100 µM (inactive),> 100 µM (inactive)

# Source: ChEMBL document CHEMBL1201862, “PubChem BioAssay data set” (2004)
